Test results reported in PMC11792023, “PNPO‐Mediated Oxidation of DVL3 Promotes Multiple Myeloma Malignancy and Osteoclastogenesis by Activating the Wnt/β‐Catenin Pathway” (Advanced Science, 2024).

Columns and labels:
[1] = target: T1, PNPO (pyridoxine-5'-phosphate oxidase) (Homo sapiens, UniProt Q9NVS9); assay: microscale thermophoresis (MST) with RED-NHS-labelled purified protein; assay type: binding
T1 construct: PNPO WT, 6×His tag (pet-28a)
T1 sequence (Q9NVS9 1-261): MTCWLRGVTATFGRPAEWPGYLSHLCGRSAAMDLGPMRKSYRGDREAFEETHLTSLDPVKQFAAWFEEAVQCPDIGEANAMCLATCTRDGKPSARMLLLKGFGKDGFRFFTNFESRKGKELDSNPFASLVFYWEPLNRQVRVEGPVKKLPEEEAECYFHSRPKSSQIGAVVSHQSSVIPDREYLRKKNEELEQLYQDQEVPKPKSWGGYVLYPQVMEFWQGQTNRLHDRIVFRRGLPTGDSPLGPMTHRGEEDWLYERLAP

[2] = target: T1, PNPO (pyridoxine-5'-phosphate oxidase); assay: microscale thermophoresis (MST); also HuProt […] proteome microarray with FITC-labelled celastrol; assay type: binding

Row | Kd [1] | Structure (SMILES) | microscale thermophoresis (MST); also HuProt 20K proteome microarray with FITC-l [2]
1 | 180 ± 90 nM | CC1=NN(c2ccc(C)c(C)c2)C(=O)/C1=N\Nc1cccc(-c2cccc(C(=O)O)c2)c1O [Eltrombopag] | –
2 | – | CC1=C(O)C(=O)C=C2C1=CC=C1[C@@]2(C)CC[C@@]2(C)[C@@H]3C[C@](C)(C(=O)O)CC[C@]3(C)CC[C@]12C [celastrol] | MST analysis confirmed a direct interaction between celastrol and PNPO
